Measured values published in ChEMBL document CHEMBL1135585, “Mixed steroidal 1,2,4,5-tetraoxanes: antimalarial and antimycobacterial activity” (J Med Chem, 2002).
“And” between values parts separate entries of the source, which are not always exact repeats. Identical values can stand only once.

Tests used:
[1] = tested on: Mycobacterium tuberculosis; test: In vitro anti-mycobacterial activity against Mycobacterium tuberculosis strain H37Rv; assay type: functional
Plasmodium falciparum [2] = tested on: Plasmodium falciparum
Description: (§1) In vitro inhibitory activity against chloroquine-resistant Plasmodium falciparum W2 Indochina

Vero = test: In vitro cytotoxicity against VERO cell line; assay type: functional, cell-based; details: Chlorocebus sabaeus
[3] = tested on: Mycobacterium tuberculosis; test: In vitro inhibitory activity against Mycobacterium tuberculosis strain H37Rv at a concentration of 6.25 ug/mL; assay type: functional
Plasmodium falciparum [4] = tested on: Plasmodium falciparum; remark: listed apart in the source
Description: (§2) In vitro inhibitory activity against chloroquine-sensitive Plasmodium falciparum African D6

Plasmodium falciparum [5] = test: microbe, parasite or virus in culture
Description: as §1

Plasmodium falciparum [6] = test: microbe, parasite or virus in culture; remark: listed apart in the source
Description: as §2

SMILES | MIC [1] | IC50 (Plasmodium falciparum [2]) [nM] | IC50 (Vero) | inhibition at 6.25 µg/mL [3] [%] | IC50 (Plasmodium falciparum [4]) [nM] | IC50 (Plasmodium falciparum [5]) [nM] | IC50 (Plasmodium falciparum [6]) [nM]
CCCNC(=O)CCC(C)C1CC[C@H]2[C@@H]3[C@H](OC(C)=O)C[C@@H]4CC5(CC[C@]4(C)[C@H]3C[C@H](OC(C)=O)[C@]12C)OOC1(CCC(C)CC1)OO5 (stereo in doubt; 15) | 6.25 µg/mL and 9.25 µM | 3.82 | 8.34 µg/mL and 12.3 µM | 94 | 3.22 |  | 
COC(=O)CCC(C)C1CC[C@H]2[C@@H]3[C@H](OC(C)=O)C[C@@H]4CC5(CC[C@]4(C)[C@H]3C[C@H](OC(C)=O)[C@]12C)OOC1(CCC(C)CC1)OO5 (stereo in doubt; 3g) | > 6.25 µg/mL and > 9.63 µM | 5.05 |  | 29 | 9.99 |  | 
CC(=O)O[C@H]1C[C@H]2[C@@H]([C@H](OC(C)=O)C[C@@H]3CC4(CC[C@@]32C)OOC2(CCC(C)CC2)OO4)[C@@H]2CCC(C(C)CCC(N)=O)[C@@]12C (stereo in doubt; 12) | 3.13 µg/mL and 4.94 µM | 0.58 | 3.49 µg/mL and 5.51 µM | 99 | 1.17 |  | 
CO[C@H]1/C=C/O[C@@]2(C)Oc3c(C)c(O)c4c(O)c(c(/C=N/N5CCN(C)CC5)c(O)c4c3C2=O)NC(=O)/C(C)=C\C=C\[C@H](C)[C@H](O)[C@@H](C)[C@@H](O)[C@@H](C)[C@H](OC(C)=O)[C@@H]1C [RIFAMPIN] | 0.12 µg/mL and 0.15 µM |  | 111 µg/mL and 134 µM |  |  |  | 
CCNC(=O)CCC(C)C1CC[C@H]2[C@@H]3[C@H](OC(C)=O)C[C@@H]4CC5(CC[C@]4(C)[C@H]3C[C@H](OC(C)=O)[C@]12C)OOC1(CCC(C)CC1)OO5 (stereo in doubt; 14) | 3.13 µg/mL and 4.73 µM | 3.93 | 5.37 µg/mL and 8.11 µM | 98 | 5.8 |  | 
NNC(=O)c1ccncc1 [ISONIAZID] | 0.05 µg/mL and 0.36 µM |  | > 1000 µg/mL and > 7 mM |  |  |  | 
CCNC(=O)CCC(C)C1CC[C@H]2[C@@H]3[C@H](OC(C)=O)C[C@@H]4CC5(CC[C@]4(C)[C@H]3C[C@H](OC(C)=O)[C@]12C)OOC1(CCC(CC)CC1)OO5 (mixture of isomers; 22) |  |  |  |  |  | 9.56 | 19.8
CCCNC(=O)CCC(C)C1CC[C@H]2[C@@H]3[C@H](OC(C)=O)C[C@@H]4CC5(CC[C@]4(C)[C@H]3C[C@H](OC(C)=O)[C@]12C)OOC1(CCCCC1C)OO5 (some centres not stated) |  |  |  |  |  | 9.29 | 13.2
CC(=O)O[C@H]1C[C@H]2[C@@H]([C@H](OC(C)=O)C[C@@H]3CC4(CC[C@@]32C)OOC2(CCCCC2C)OO4)[C@@H]2CCC(C(C)CCC(N)=O)[C@@]12C (some centres not stated) |  |  |  |  |  | 11.1 | 17.3
C[C@@H]1CC[C@H]2[C@@H](C)C(=O)O[C@@H]3O[C@@]4(C)CC[C@@H]1[C@]32OO4 [ARTEMISININ] |  |  |  |  |  | 7.3 | 8.4
CC(=O)O[C@H]1C[C@H]2[C@@H]([C@H](OC(C)=O)C[C@@H]3CC4(CC[C@@]32C)OOC2(CCCCC2)OO4)[C@@H]2CCC(C(C)CCC(=O)O)[C@@]12C (some centres not stated) |  |  |  |  |  | 19.2 | 11.8
CCC1CCC2(CC1)OOC1(CC[C@@]3(C)[C@H](C[C@@H](OC(C)=O)[C@@H]4[C@@H]3C[C@H](OC(C)=O)[C@]3(C)C(C(C)CCC(=O)O)CC[C@@H]43)C1)OO2 (stereo in doubt; 4i) |  |  |  |  |  | 7.26 | 5.76
COC(=O)CCC(C)C1CC[C@H]2[C@@H]3[C@H](OC(C)=O)C[C@@H]4CC5(CC[C@]4(C)[C@H]3C[C@H](OC(C)=O)[C@]12C)OOC1(CC(C)CCC1C(C)C)OO5 (some centres not stated) |  |  |  |  |  | 73.2 | 154
COC(=O)CCC(C)C1CC[C@H]2[C@@H]3[C@H](OC(C)=O)C[C@@H]4CC5(CC[C@]4(C)[C@H]3C[C@H](OC(C)=O)[C@]12C)OOC1(CCCCC1)OO5 (some centres not stated) |  |  |  |  |  | 17 | 21.5
CNC(=O)CCC(C)C1CC[C@H]2[C@@H]3[C@H](OC(C)=O)C[C@@H]4CC5(CC[C@]4(C)[C@H]3C[C@H](OC(C)=O)[C@]12C)OOC1(CCC(C)CC1)OO5 (stereo in doubt; 13) | 6.25 µg/mL and 9.65 µM | 3.61 | 5.69 µg/mL and 8.78 µM | 98 | 5.96 |  | 
CC(=O)O[C@H]1C[C@H]2[C@@H]([C@H](OC(C)=O)C[C@@H]3CC4(CC[C@@]32C)OOC2(CCC(C)CC2)OO4)[C@@H]2CCC(C(C)CCC(=O)O)[C@@]12C (stereo in doubt; 4g) | > 6.25 µg/mL and > 9.84 µM | 0.98 |  | 21 | 1.53 |  | 
CNC(=O)CCC(C)C1CC[C@H]2[C@@H]3[C@H](OC(C)=O)C[C@@H]4CC5(CC[C@]4(C)[C@H]3C[C@H](OC(C)=O)[C@]12C)OOC1(CCCCC1C)OO5 (some centres not stated) |  |  |  |  |  | 10 | 15.2
COC(=O)CCC(C)C1CC[C@H]2[C@@H]3[C@H](OC(C)=O)C[C@@H]4CC5(CC[C@]4(C)[C@H]3C[C@H](OC(C)=O)[C@]12C)OOC1(CCCCCCC1)OO5 (some centres not stated) |  |  |  |  |  | 20 | 48.4
